What all share (assay): Test A preemergence
What all share (format): in vivo

The test system of assay [1] is ryegrass, Italian (Italian ryegrass, Lolium multiflorum). Conditions: Lolium multiflorum, pre-emergence, 240 h, preemergence, read-out: Plant response rating, Ryegrass, Italian; for pest or weed control at 125 g/ha: 125 g ai/ha, visual rating after approx. 10 d, 0 to 100 scale where 0 is no effect and 100 is complete control; for pest or weed control at 500 g/ha: 500 g ai/ha, 0 to 100 scale, 0 = no effect, 100 = complete control. The procedure, abridged:
(§1)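 Visual injury scores from 0, no effect, to 100, complete control, were assigned versus untreated controls roughly 10 d after treatment in the greenhouse. Test chemicals, formulated with surfactant in a non-phytotoxic solvent, were applied to planted seeds as a preemergence soil spray or postemergence to one- to two-leaf plants 2 to 10 cm tall, in loam–sand soil.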

Assay [2] has as its system giant foxtail (Setaria faberii). Conditions: Setaria faberi, pre-emergence, 240 h, preemergence, read-out: Plant response rating, Foxtail, Giant; for pest or weed control at 125 g/ha: 125 g ai/ha, visual rating after approx. 10 d, 0 to 100 scale where 0 is no effect and 100 is complete control; for pest or weed control at 500 g/ha: 500 g ai/ha, 0 to 100 scale, 0 = no effect, 100 = complete control. The method in brief: as §1

The test system of assay [3] is barnyardgrass (Echinochloa crus-galli). Conditions: Echinochloa crus-galli, pre-emergence, 240 h, preemergence, read-out: Plant response rating, Barnyardgrass; for pest or weed control at 125 g/ha: 125 g ai/ha, visual rating after approx. 10 d, 0 to 100 scale where 0 is no effect and 100 is complete control; for pest or weed control at 500 g/ha: 500 g ai/ha, 0 to 100 scale, 0 = no effect, 100 = complete control. The procedure, abridged: as §1

The next assay deals with Kochia (Kochia scoparia). Conditions: Bassia scoparia, pre-emergence, 240 h, preemergence, read-out: Plant response rating, Kochia; for pest or weed control at 125 g/ha: 125 g ai/ha, visual rating after approx. 10 d, 0 to 100 scale where 0 is no effect and 100 is complete control; for pest or weed control at 500 g/ha: 500 g ai/ha, 0 to 100 scale, 0 = no effect, 100 = complete control. The method in brief:
as §1

Assay [4] concerns pigweed (Amaranthus retroflexus). Conditions: Amaranthus retroflexus, pre-emergence, 240 h, preemergence, read-out: Plant response rating, Pigweed; for pest or weed control at 125 g/ha: 125 g ai/ha, visual rating after approx. 10 d, 0 to 100 scale where 0 is no effect and 100 is complete control; for pest or weed control at 500 g/ha: 500 g ai/ha, 0 to 100 scale, 0 = no effect, 100 = complete control.

Assay [5] deals with ragweed (common ragweed, Ambrosia elatior). Conditions: Ambrosia artemisiifolia, pre-emergence, 240 h, preemergence, read-out: Plant response rating, Ragweed; for pest or weed control at 125 g/ha: 125 g ai/ha, visual rating after approx. 10 d, 0 to 100 scale where 0 is no effect and 100 is complete control; for pest or weed control at 500 g/ha: 500 g ai/ha, 0 to 100 scale, 0 = no effect, 100 = complete control. The procedure, abridged:
as §1

`Cc1ccc([C@H]2CN(C)C(=O)[C@@H]2C(=O)Nc2ccccc2S(C)(=O)=O)cc1C` [Compound 734]: the pest or weed control at 125 g/ha was determined as 40% in assay [1]; 90% in assay [2]; 90% in assay [3]; 20% in the assay with Kochia (Kochia scoparia); 20% in assay [4]; 20% in assay [5]. Further, the pest or weed control at 500 g/ha was 90% in assay [1]; 100% in assay [2]; 100% in assay [3]; 90% in the assay on Kochia (Kochia scoparia); 80% in assay [4]; 50% in assay [5].
With `CCc1cc(CC)cc([C@H]2CN(C)C(=O)[C@@H]2C(=O)Nc2ccccc2F)c1` [Compound 735], the pest or weed control at 125 g/ha in assay [1] stood at 80%; in assay [2], 90%; in assay [3], 90%; in the assay on Kochia (Kochia scoparia), 20%; in assay [4] it was 0%; in assay [5] it was 0%. Besides, the pest or weed control at 500 g/ha in assay [1] is 90%; in assay [2], 90%; in assay [3], 90%; with Kochia (Kochia scoparia), 80%; in assay [4], 20%; in assay [5], 0%.
With `CCc1cc(CC)cc([C@H]2CN(C)C(=O)[C@@H]2C(=O)Nc2cccc(F)c2F)c1` [Compound 736], the pest or weed control at 125 g/ha came to 90% in assay [1]; 90% in assay [2]; 90% in assay [3]; 20% in the assay on Kochia (Kochia scoparia); 0% in assay [4]; 0% in assay [5]. Also, the pest or weed control at 500 g/ha in assay [1] is 90%; in assay [2] it was 90%; in assay [3], 90%; with Kochia (Kochia scoparia), 70%; in assay [4] it was 20%; in assay [5] it was 20%.
Regarding `CN1C[C@H](c2ccc(F)c(OC(F)(F)C(F)F)c2)[C@@H](C(=O)Nc2ccccc2F)C1=O` [Compound 740], the pest or weed control at 125 g/ha in assay [1] amounted to 60%; in assay [2], 100%; in assay [3], 90%; with Kochia (Kochia scoparia), 80%; in assay [4], 70%; in assay [5], 40%. Besides, the pest or weed control at 500 g/ha in assay [1] is 80%; in assay [2], 100%; in assay [3], 90%; in the assay with Kochia (Kochia scoparia) it was 90%; in assay [4], 80%; in assay [5], 50%.
`CN1C[C@H](c2cccc(C(F)(F)F)c2)[C@@H](C(=O)Nc2ccccc2C2CC2)C1=O` [Compound 749]: the pest or weed control at 125 g/ha in assay [1] was 0%; in assay [2], 50%; in assay [3], 0%; with Kochia (Kochia scoparia) it was 0%; in assay [4] it was 0%; in assay [5], 0%. The pest or weed control at 500 g/ha in assay [1] was 20%; in assay [2] it was 90%; in assay [3], 20%; in the assay with Kochia (Kochia scoparia), 20%; in assay [4] it was 0%; in assay [5], 0%.
On to `O=C1NC[C@H](c2csc3ccccc23)[C@H]1C(=O)Nc1ccccc1F` [Compound 750], for which the pest or weed control at 125 g/ha in assay [1] is 0%; in assay [2], 50%; in assay [3] it was 80%; in the assay on Kochia (Kochia scoparia), 0%; in assay [4] it was 0%; in assay [5], 0%. In addition, the pest or weed control at 500 g/ha in assay [1] was found to be 20%; in assay [2] it was 90%; in assay [3] it was 90%; with Kochia (Kochia scoparia) it was 0%; in assay [4], 0%; in assay [5] it was 0%.
Turning to `O=C1NC[C@H](c2csc3ccccc23)[C@H]1C(=O)Nc1cccc(F)c1F` [Compound 751], the pest or weed control at 125 g/ha in assay [1] is 0%; in assay [2], 80%; in assay [3], 90%; in the assay on Kochia (Kochia scoparia), 20%; in assay [4] it was 0%; in assay [5], 20%. The pest or weed control at 500 g/ha in assay [1] was 20%; in assay [2], 90%; in assay [3] it was 90%; in assay [4] it was 0%; in assay [5] it was 40%.
As to `Cc1ccc(NC(=O)[C@H]2C(=O)N(C)C[C@@H]2c2cc(F)cc(F)c2)c(F)c1` [Compound 760], the pest or weed control at 125 g/ha in assay [1] came out at 0%; in assay [2] it was 100%; in assay [3], 100%; in the assay with Kochia (Kochia scoparia) it was 0%; in assay [4], 0%; in assay [5] it was 0%. Besides, the pest or weed control at 500 g/ha came out at 100% in assay [2]; 100% in assay [3]; 60% with Kochia (Kochia scoparia); 0% in assay [4]; 0% in assay [5].
For `Cc1ccc([C@H]2CNC(=S)[C@@H]2C(=O)Nc2cccc(F)c2F)cc1C` [Compound 765], the pest or weed control at 125 g/ha in assay [1] amounted to 0%; in assay [2], 30%; in assay [3], 100%; in the assay on Kochia (Kochia scoparia), 0%; in assay [4], 0%; in assay [5] it was 0%. Also, the pest or weed control at 500 g/ha in assay [2] worked out at 80%; in assay [3], 100%; in the assay with Kochia (Kochia scoparia) it was 0%; in assay [4], 0%; in assay [5], 30%.
As for `COc1cc([C@H]2CN(C)C(=O)[C@@H]2C(=O)Nc2ccccc2SC)ccc1C(F)(F)F` [Compound 769], the pest or weed control at 125 g/ha in assay [1] was 0%; in assay [2] it was 90%; in assay [3] it was 70%; in the assay on Kochia (Kochia scoparia), 30%; in assay [4], 30%; in assay [5], 30%. Besides, the pest or weed control at 500 g/ha in assay [2] worked out at 100%; in assay [3], 100%; with Kochia (Kochia scoparia) it was 70%; in assay [4], 80%; in assay [5], 70%.
Take `Cc1ccc(NC(=O)[C@H]2C(=O)N(C)C[C@@H]2c2cc(F)cc(F)c2)c(F)c1F` [Compound 771]: the pest or weed control at 125 g/ha in assay [1] was found to be 40%; in assay [2] it was 90%; in assay [3], 90%; in the assay with Kochia (Kochia scoparia) it was 50%; in assay [4], 0%; in assay [5], 0%. The pest or weed control at 500 g/ha in assay [2] was determined as 90%; in assay [3] it was 90%; with Kochia (Kochia scoparia), 80%; in assay [4] it was 0%; in assay [5], 50%.

Values taken from patent publication US12077503B2, “Substituted cyclic amides and their use as herbicides” (FMC CORPORATION, priority 2015, dated 2024).
